“Also recorded” adds a separate entry of the source.
How the values were obtained:
[1] = Solubility in DMSO for in vitro tests; type: physicochemical; details: DMSO used for the in vitro tests
Method: All tested compounds were dissolved in dimethyl sulfoxide (DMSO). […] To assess the anticancer activity of compounds, we tested human hepatocellular carcinoma (HCC), medulloblastoma (MB), and glioblastoma (GBM) cell lines. Further, to compare the effects of selected compounds on nonmalignant primary cells, we used primary human umbilical vein endothelial cells (HUVEC).
We planned to use compounds 8 and 9 as references in the current study. […] In our further studies, we plan to compare activities of all compounds using ethanol as the solvent.

[2] = system: human colon cancer HT-29; parameters: method as in doi:10.1016/j.tetasy.2016.06.009; details: colon cancer line; cited from earlier work
[3] = system: HUVEC cells; test: Cell viability assay MTT/CellTiter Blue, HUVEC (Table 2); type: cell-based; details: Table 2, nonmalignant primary cells, 24 h, assay as for D425
Method: (§1) The human hepatocellular carcinoma (HCC) cell line HUH7 was purchased from ATCC (LGC standards GmbH, Wesel, Germany). The Austrian human HCC cell line AKH12 has been well characterized and was kindly provided by Prof. Bettina Grasl-Kraupp. HUH7 cells were cultured in Dulbecco’s modified Eagle’s medium (Thermo Fisher Scientific, Waltham, MA, USA) containing 10% heat-inactivated fetal bovine serum (FBS) (Sigma-Aldrich, St. Louis, MO, USA), 1% penicillin-streptomycin (10,000 U/mL) (Thermo Fisher Scientific, Waltham, MA, USA), and 1% minimum essential medium nonessential amino acids (100x) (Thermo Fisher Scientific, Waltham, MA, USA). AKH12 cells were cultured in RPMI1640 medium (Sigma-Aldrich, St. Louis, MO, USA) containing 10% heat-inactivated FBS. DAOY and D283Med (short D283) medulloblastoma (MB) cells were purchased from ATCC (LGC standards GmbH, Wesel, Germany). D425Med (short D425) and UW228-2 were provided by Thomas Ströbel from the Institute of Neurology Medical University of Vienna. The cells were cultured in Dulbecco’s modified Eagle’s medium (Sigma-Aldrich, St. Louis, MO, USA) containing 10% FBS (Sigma-Aldrich, St. Louis, MO, USA), 2% L-Glutamine (Sigma-Aldrich, St. Louis, MO, USA), and 0.2% Normocin (Sigma-Aldrich, St. Louis, MO, USA). U-251 MG (short U251) glioblastoma (GBM) cell line was purchased from Sigma-Aldrich and cultured in Dulbecco’s modified Eagle’s medium (Sigma-Aldrich, St. Louis, MO, USA) containing 10% FBS (Sigma-Aldrich, St. Louis, MO, USA), 2% L-Glutamine (Sigma-Aldrich, St. Louis, MO, USA), and 0.2% Normocin (Sigma-Aldrich, St. Louis, Missouri, USA). Human umbilical vein endothelial cells (HUVECs) were provided by Brigitte Winter from the Department of Surgery Medical University of Vienna and were grown in endothelial cell growth medium-2 BulletKitTM (Lonza, Basel, Switzerland) under standard tissue culture conditions. All cells were incubated at 37 °C in a 5% CO2 atmosphere and regularly checked for mycoplasma contamination.
(§2) LD50 was defined as the amount of a toxic agent required to eliminate 50% of the cell population. The LD50 was calculated in each experiment from the respective dose–response curve. All experiments were performed in triplicate wells.
(§3) One day before treatment, 2 × 10^4 of D425Med or HUVEC cells were seeded into 24-well plates and incubated at 37 °C in a humidified atmosphere containing 5% CO2.The cells were treated with different compounds for 24 h. A […] assay using the CellTiter Blue reagent (Promega, Fitchburg, Wisconsin, USA) was performed according to the manufacturer’s protocol. Experiments were performed in triplicate and repeated three times. The percentage of survival was calculated as the ratio using DMSO-treated (indicated as 0 µM concentration) cells as 100% control.

[4] = system: HUH7 cells; test: Neutral red cell viability assay, HUH7; type: cell-based, human; details: Homo sapiens, Huh-7; 24 h treatment, neutral red; read-out: LD50 HUH7 (HCC)
Method: as §1
(§4) Cell viability was determined using a neutral red assay, as previously described. The cells were placed in 24-well plates and grown to reach 70–80% confluency prior to treatment. After treatment for 24 h, cells were incubated with neutral red at a concentration of 50 µg/mL in serum-free medium for 2 h at 37 °C. Cells were then washed 2x and incubated with 1% acetic acid in 70% ethanol. The dye concentration was measured photometrically at 562 nm. The percentage of survival was calculated considering DMSO-treated (indicated as 0 µM concentration) cells as 100% control.
as §2

[5] = system: U251 cells; test: Neutral red cell viability assay, U251; type: cell-based, human; details: for decrease of cell viability, U251: 50 µM, 24 h, first screening; for IC50: Homo sapiens, U-251, 24 h treatment, neutral red, read-out: LD50 U251 (GBM)
Method: as §1, §4, §2

[6] = system: UW228-2 cells; test: Neutral red cell viability assay, UW228-2; type: cell-based, human; details: for reduction of cell viability, UW228-2: 50 µM, 24 h, first screening; for IC50: Homo sapiens, UW228-2, 24 h treatment, neutral red, read-out: LD50 UW228-2 (MB)
Method: as §1, §4, §2

[7] = system: DAOY cells; test: Neutral red cell viability assay, DAOY; type: cell-based, human; details: for reduction of cell viability, DAOY: 50 µM, 24 h, first screening; for IC50: Homo sapiens, Daoy, 24 h treatment, neutral red, read-out: LD50 DAOY (MB)
Method: as §1, §4, §2

[8] = system: D425 cells; test: Cell viability assay (suspension cell line), MTT/CellTiter Blue, D425; type: cell-based, human; details: for reduction of cell viability, D425: 50 µM, 24 h, first screening; for IC50: Homo sapiens, 24 h treatment, suspension cell assay, read-out: LD50 D425 (MB); for HUVEC/D425 LD50 Fold Change: ratio of LD50 HUVEC to LD50 D425
Method: as §1, §2, §3

[9] = system: HUVEC cells; test: Neutral red cell viability assay, HUVEC (Table 1); type: cell-based; details: Table 1, nonmalignant primary cells, 24 h
Method: as §1, §4, §2

[10] = system: D283 cells; test: Neutral red cell viability assay, D283; type: cell-based, human; details: for reduction of cell viability, D283: 50 µM, 24 h, first screening; for IC50: Homo sapiens, D283, 24 h treatment, read-out: LD50 D283 (MB)
Method: as §1, §4, §2

[11] = system: AKH12 cells; test: Neutral red cell viability assay, AKH12; type: cell-based, human; details: for reduction of cell viability, AKH12: 50 µM, 24 h, first screening; for IC50: Homo sapiens, 24 h treatment, neutral red, read-out: LD50 AKH12 (HCC)
Method: as §1, §4, §2

Row | melting point [°C] | Compound | solubility in DMSO [1] | IC50 [2] [µM] | LD50 HUVEC [3] [µM] | IC50 [4] [µM] | decrease of cell viability, U251 [5] | IC50 [5] [µM] | reduction of cell viability, UW228-2 [6] | IC50 [6] [µM] | reduction of cell viability, DAOY [7] | IC50 [7] [µM] | reduction of cell viability, D425 [8] | IC50 [8] [µM] | HUVEC/D425 LD50 Fold Change [8] | LD50 HUVEC [9] [µM] | reduction of cell viability, D283 [10] | IC50 [10] [µM] | reduction of cell viability, AKH12 [11] | IC50 [11] [µM] | D425 cell viability as compared to HUVEC cells ([8]; dose-response 24 h, Student's t-test, p ≤0.05 / p ≤0.01)
1 | – | CC(c1ccccc1)N1C2CCC(C2)C1CNCCNCC1C2CCC(C2)N1C(C)c1ccccc1 (centres unmarked) [Compound 8] | not sufficient; also recorded: insufficiently soluble | 7.2 ± 0.8 | – | – | – | – | – | – | – | – | – | – | – | – | – | – | – | – | –
2 | – | CC(c1ccccc1)N1C2CCC(C2)C1CNCC1C2CCC(C2)N1C(C)c1ccccc1 (centres unmarked) [Compound 9] | not sufficient; also recorded: insufficiently soluble | – | – | – | – | – | – | – | – | – | – | – | – | – | – | – | – | – | –
3 | – | CC(c1ccccc1)N1CC(NS(=O)(=O)c2ccc(-c3ccccc3)cc2)C2CCC1C2 [Compound 11a, 4-Phenyl-N-((2-((S)-1-phenylethyl)-(1S,4S,5R)-2-azabicyclo[3.2.1]octan-4-yl)benzenesulfonamide] | – | – | 21.71 ± 1.99 | 22.5 ± 1.21 | more than 50% | 18.8 ± 2.11 | reduced cell viability | 16 ± 1.03 | reduced cell viability | 18.7 ± 1.88 | reduced cell viability | 21.4 ± 0.89 | 1.01 | 13.35 ± 0.25 | reduced cell viability | 20 ± 2.02 | reduced cell viability below LD50 | 28.8 ± 1.53 | –
4 | – | COc1ccc(-c2ccc(S(=O)(=O)NC3CN(C(C)c4ccccc4)C4CCC3C4)cc2)cc1 [Compound 11e, 4-(4-Methoxyphenyl)-N-((2-((S)-1-phenylethyl)-(1S,4S,5R)-2-azabicyclo[3.2.1]octan-4-yl)benzenesulfonamide] | – | – | 36.38 ± 4.37 | 30.2 ± 2.21 | more than 50% | 23.7 ± 1.69 | reduced cell viability | 23.5 ± 1.56 | reduced cell viability | 24 ± 1.49 | reduced cell viability | 17.8 ± 1.04 | 2.04 | 17.58 ± 2.94 | reduced cell viability | 25.9 ± 1.9 | reduced cell viability below LD50 | 28 ± 1.39 | significantly reduced D425 cell viability as compared to HUVEC cells
5 | – | CC(c1ccccc1)N1CC(NS(=O)(=O)c2cc(C(F)(F)F)cc(C(F)(F)F)c2)C2CCC1C2 [Compound 11g, 3,5-Bis(trifluoromethyl)-N-((2-((S)-1-phenylethyl)-(1S,4S,5R)-2-azabicyclo[3.2.1]octan-4-yl)benzenesulfonamide] | – | – | 16 ± 2.29 | 20 ± 1.1 | more than 50% | 24.8 ± 0.92 | reduced cell viability | 20.1 ± 1.34 | reduced cell viability | 20.4 ± 1.33 | reduced cell viability | 11.2 ± 1.73 | 1.42 | 18.68 ± 1.97 | reduced cell viability | 17.2 ± 0.89 | reduced cell viability below LD50 | 28 ± 1.72 | –
6 | 120 to 125 | Cc1ccc(-c2ccc(S(=O)(=O)N(CCN(CC3C4CCC(C4)N3C(C)c3ccccc3)S(=O)(=O)c3ccc(-c4ccc(C)cc4)cc3)CC3C4CCC(C4)N3C(C)c3ccccc3)cc2)cc1 [Compound 12b, Bis-4’-methyl-N,N-{[(1S,3R,4R)-2-((S)-1-phenylethyl)-2-azabicyclo[2.2.1]heptan-3-yl]methyl}-[1,1'-biphenyl]ethyl-4-sulfonamide] | not sufficient | – | – | – | – | – | – | – | – | – | – | – | – | – | – | – | – | – | –
7 | 252 to 255 | CC(c1ccccc1)N1C2CCC(C2)C1CN(CCN(CC1C2CCC(C2)N1C(C)c1ccccc1)S(=O)(=O)c1ccc(-c2ccc(Cl)cc2)cc1)S(=O)(=O)c1ccc(-c2ccc(Cl)cc2)cc1 [Compound 12d, Bis-4’-chloro-N,N-{[(1S,3R,4R)-2-((S)-1-phenylethyl)-2-azabicyclo[2.2.1]heptan-3-yl]methyl}-[1,1'-biphenyl]ethyl-4-sulfonamide] | not sufficient | – | – | – | – | – | – | – | – | – | – | – | – | – | – | – | – | – | –
8 | – | CC(=O)Nc1ccc(S(=O)(=O)N(CCN(CC2C3CCC(C3)N2C(C)c2ccccc2)S(=O)(=O)c2ccc(NC(C)=O)cc2)CC2C3CCC(C3)N2C(C)c2ccccc2)cc1 [Compound 12i, Bis-N,N-(4-(N-(((1S,3R,4R)-2-((S)-1-phenylethyl)-2-azabicyclo[2.2.1]heptan-3-yl)methyl)sulfamoyl)ethyl)phenyl)acetamide] | – | – | 8.91 ± 2.11 | 7.75 ± 0.84 | more than 50% | 15.3 ± 1.59 | reduced cell viability | 28.4 ± 2.11 | reduced cell viability | 12.9 ± 1.59 | reduced cell viability | 15.6 ± 0.93 | 0.57 | 3.16 ± 0.15 | reduced cell viability | 21.8 ± 1.9 | reduced cell viability below LD50 | 5.75 ± 0.47 | –
9 | – | CC(c1ccccc1)N1C2CCC(C2)C1CN(CC1C2CCC(C2)N1C(C)c1ccccc1)S(=O)(=O)c1ccc(-c2ccccc2)cc1 [Compound 13a, N-Bis-(((1S,3R,4R)-2-((S)-1-phenylethyl)-2-azabicyclo[2.2.1]heptan-3-yl)methyl)-[1,1'-biphenyl]-4-sulfonamide] | – | – | 16 ± 0.79 | 13.9 ± 0.49 | more than 50% | 27.6 ± 1.04 | reduced cell viability | 25.9 ± 1.98 | reduced cell viability | 19.2 ± 1.37 | reduced cell viability | 30.5 ± 1.86 | 0.52 | 12.13 ± 0.26 | reduced cell viability | 38.4 ± 1.11 | reduced cell viability below LD50 | 8 ± 0.28 | –
10 | – | N.N.[Cl][Pt][Cl] [cisplatin] | – | 9.7 ± 2 | – | – | – | – | – | – | – | – | – | – | – | – | – | – | – | – | –

Reference: paper PMC7288168, “Synthesis and Cytotoxic Activity of Chiral Sulfonamides Based on the 2-Azabicycloalkane Skeleton” (Molecules, 2020)
